Experimental data taken from paper PMC9887116, “SDI-118, a novel procognitive SV2A modulator: First-in-human randomized controlled trial including PET/fMRI assessment of target engagement” (Frontiers in Pharmacology, 2023).
Several values for one entry are separate records, joined by “and”; a condition that tells them apart may be missing. Equal values may be shown once.

Assays:
[1] = anti-convulsant effects (preclinical); type: in vivo; settings: despite good brain penetration and target occupancy
Text: (§1) ([Löscher et al., 2016]). […] ([Lynch et al., 2004]; [Matagne et al., 2008]).

[2] = test system: animal models of cognitive deficit; assay: animal models of cognitive deficit; type: in vivo; settings: rodents
Text: as §1

[3] = parameters: species or system rats; settings: rat, in vivo
hERG = hERG (Homo sapiens, UniProt Q12809); assay: preclinical in vitro hERG inhibition; type: biochemical; settings: preclinical in vitro studies
[4] = 12-lead ECG QT-interval assessment in first-in-human study; type: in vivo, human (healthy male subjects)
Protocol: Safety and tolerability were assessed by questioning for adverse events (AEs), vital signs measurements (supine and orthostatic), 12-lead ECGs (always acquired in triplicate except during screening and post-study visit), standard lab safety tests on blood and urine samples, and physical and neurological examinations at regular time-points throughout the study.

[5] = plasma pharmacokinetics, Part A single ascending dose; type: in vivo, human (healthy male subjects)
Protocol: (§2) The study consisted of three parts. […] No stratification was performed.
(§3) Blood samples for PK analysis were taken at regular time-points up to approximately 96 h post-dose in Part A and C. During the study, a protocol amendment was approved to extend the PK sampling scheme to include samples up to approximately 144 h post-dose, starting from the fourth dosing period. The rationale for this amendment was a longer than anticipated terminal elimination half-life of SDI-118 as concluded from preliminary PK data of the first three dosing periods. Plasma concentrations of SDI-118 were assayed using a GLP validated UPLC/MS-MS method. This method is linear for a range of concentrations from 0.200 to 500 ng/ml, with a lower limit of quantification (LLOQ) of 0.200 ng/ml. The following PK parameters were estimated: maximum plasma concentration Cmax, time of maximum plasma concentration Tmax, area under the plasma concentration versus time curve AUC, AUC0-last (up to the last quantifiable concentration Clast), AUCinf (extrapolated to infinity), and apparent terminal elimination half-life t½. Dose proportionality of SDI-118 Cmax, AUC0-last, and AUCinf from Part A was calculated based on a mixed-effect power model. Food effect on SDI-118 Cmax, AUC0-last, and AUCinf from Part C was calculated using a 90% confidence interval (CI) on geometric mean ratios (fed/fasted) based on a mixed-effect analysis of variance (ANOVA) with median difference in Tmax with 90% CI. Major interaction was excluded if the 90% CI on AUC and Cmax ratios (fed/fasted) were within the 50%–200% boundaries. The food effect assessment in Part C was performed on a secondary population, i.e. the PK completers set, which excluded one subject who discontinued the study after one dosing period (cfr. infra).

[6] = food effect on pharmacokinetics, Part C; type: in vivo, human (healthy male subjects); settings: 10 mg
Protocol: as §3

SV2A [7] = target: T1, SV2A (Homo sapiens, UniProt Q7L0J3); assay: brain SV2A occupancy by [11C]-UCB-J PET and PK/PD Emax model, Part B; type: in vivo, human (healthy male subjects)
T1 construct: from tissue; host or cells: brain of healthy male subjects, in vivo
Protocol: In Part B target occupancy in the brain was measured by PET-scans (GE Signa) with the PET-ligand [^11C]-UCB-J ([Nabulsi et al., 2016]; [Koole et al., 2019]) at three different time points: pre-dose, around Tmax (estimated on data collected in Part A), and approximately 24 h post-dose. [^11C]-UCB-J was administered as an intravenous bolus into the antecubital vein over at least 15 s, followed by saline flush. An arterial line in the radial artery was placed in each subject to collect arterial blood samples to reconstruct a metabolite-corrected arterial plasma input function.
Dynamic PET scans were acquired in 3D list-mode for 90 min. List-mode data were rebinned into […] with a gradually increasing frame duration (6 × 15 s—3 × 30 s—3 × 60 s—2 × 90 s—2 × 3 min—9 × 5 min—3 × 10 min) and corrected for deadtime, randoms, and scatter. To correct for attenuation, a Zero-Echo Time (ZTE) scan was acquired simultaneously with the PET data to generate a subject-specific, MR-based attenuation map. Each frame was reconstructed with an iterative algorithm (OSEM—Ordered Subsets Expectation Maximization, four iterations, 28 subsets), modeling detector response, and using time of flight information (TOF). Each reconstructed frame consisted of 89 slices with a matrix size of 192 × 192, corresponding to an in-plane pixel size of 1.56 mm and a slice separation of 2.78 mm. Finally, smoothing was performed by applying a Gaussian filter (4.5 mm Full Width Half Maximum–FWHM) to each time frame.
SDI-118 SV2A occupancy was estimated globally using a full kinetic one-tissue compartmental modeling approach with an arterial input function (1TCM), and target occupancy was assessed with a Lassen plot using 13 main regions of interest: the overall cortex, the frontal, temporal, parietal and occipital cortex, the insula, the anterior and posterior cingulate cortex, the cerebellum, the striatum, the thalamus, the hippocampus, and the brainstem.
The PK/PD analysis set included all subjects from Part B with at least one available valid combined measurement of PK and PD, who received treatment and experienced no protocol deviations with relevant impact on PK or PD data. The global target occupancy based on the 1TCM method was analyzed as a function of the first PK concentration during the Tmax and 24-h post-dose scans. To estimate the relationship between the observed concentration at the beginning of the PET measurement and the receptor occupancy, a mixed-effect maximal effective concentration (Emax) model with two parameters Emax and half maximal effective concentration (EC50), with a random intercept was used. Parameter estimates, standard errors, and 95% confidence intervals were reported. Predictions from the model were reported with 95% confidence and prediction intervals to inform the required doses to produce these target occupancy values at Tmax and 24-h post-dose.

SV2A [8] = assay: minimum anticipated biological effect level in experimental rodent models; type: in vivo
Protocol: as §2

[9] = Emax model excluding 22-h post-dose data of the 1 mg group

T1 sequence (Q7L0J3 whole entry): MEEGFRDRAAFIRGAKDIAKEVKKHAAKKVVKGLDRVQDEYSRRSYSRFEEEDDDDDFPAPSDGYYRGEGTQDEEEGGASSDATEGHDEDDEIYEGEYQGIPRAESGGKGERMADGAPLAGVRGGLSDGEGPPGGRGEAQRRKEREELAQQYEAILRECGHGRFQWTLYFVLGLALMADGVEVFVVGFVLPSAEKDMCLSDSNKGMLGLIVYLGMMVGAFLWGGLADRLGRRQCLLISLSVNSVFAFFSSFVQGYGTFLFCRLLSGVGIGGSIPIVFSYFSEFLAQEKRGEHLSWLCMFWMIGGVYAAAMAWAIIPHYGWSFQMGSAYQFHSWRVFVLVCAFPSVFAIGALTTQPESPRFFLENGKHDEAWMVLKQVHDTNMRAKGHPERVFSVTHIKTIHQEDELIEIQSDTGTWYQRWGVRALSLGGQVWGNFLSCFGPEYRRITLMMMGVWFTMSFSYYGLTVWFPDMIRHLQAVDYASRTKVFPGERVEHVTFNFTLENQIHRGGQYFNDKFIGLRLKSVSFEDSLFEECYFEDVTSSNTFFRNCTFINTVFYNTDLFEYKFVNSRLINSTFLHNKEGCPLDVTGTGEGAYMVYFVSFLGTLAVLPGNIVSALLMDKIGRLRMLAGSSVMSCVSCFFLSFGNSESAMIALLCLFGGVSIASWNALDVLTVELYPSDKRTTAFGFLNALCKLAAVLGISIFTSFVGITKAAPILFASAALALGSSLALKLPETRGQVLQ
Chain of hERG (Q12809 whole entry): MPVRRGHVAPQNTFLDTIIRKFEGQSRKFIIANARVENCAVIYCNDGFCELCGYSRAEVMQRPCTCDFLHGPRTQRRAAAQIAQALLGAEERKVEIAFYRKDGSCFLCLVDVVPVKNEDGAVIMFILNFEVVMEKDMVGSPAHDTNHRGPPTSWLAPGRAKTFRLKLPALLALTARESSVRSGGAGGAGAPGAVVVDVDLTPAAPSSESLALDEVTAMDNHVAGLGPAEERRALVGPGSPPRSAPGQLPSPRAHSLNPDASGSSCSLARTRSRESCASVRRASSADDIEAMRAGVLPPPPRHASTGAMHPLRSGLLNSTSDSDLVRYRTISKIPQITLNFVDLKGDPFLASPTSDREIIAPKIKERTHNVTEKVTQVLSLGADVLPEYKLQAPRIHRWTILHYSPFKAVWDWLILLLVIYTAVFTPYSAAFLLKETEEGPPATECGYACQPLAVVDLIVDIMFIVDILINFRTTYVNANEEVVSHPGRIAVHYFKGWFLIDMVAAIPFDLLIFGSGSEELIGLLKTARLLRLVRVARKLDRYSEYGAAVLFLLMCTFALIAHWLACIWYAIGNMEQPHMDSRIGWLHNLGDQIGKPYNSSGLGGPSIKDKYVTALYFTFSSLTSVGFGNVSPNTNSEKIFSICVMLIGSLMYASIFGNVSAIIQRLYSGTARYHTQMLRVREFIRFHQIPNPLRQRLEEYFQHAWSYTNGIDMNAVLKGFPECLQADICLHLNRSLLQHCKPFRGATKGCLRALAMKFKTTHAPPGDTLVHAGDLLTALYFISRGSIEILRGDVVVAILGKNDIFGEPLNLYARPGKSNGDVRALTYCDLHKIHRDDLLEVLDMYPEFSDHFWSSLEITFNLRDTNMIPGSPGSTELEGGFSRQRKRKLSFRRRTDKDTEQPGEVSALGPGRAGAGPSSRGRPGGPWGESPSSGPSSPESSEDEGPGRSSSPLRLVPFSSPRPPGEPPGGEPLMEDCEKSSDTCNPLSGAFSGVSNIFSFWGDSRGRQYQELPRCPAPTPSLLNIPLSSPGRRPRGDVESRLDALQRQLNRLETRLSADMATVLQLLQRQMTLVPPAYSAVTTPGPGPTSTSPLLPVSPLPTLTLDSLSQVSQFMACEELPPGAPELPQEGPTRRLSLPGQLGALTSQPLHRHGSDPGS

## O=C1C[C@H](c2cc(F)c(F)c(F)c2)CN1Cn1ncnc1Cl [SDI-118]
[1]
  anti-convulsant effects: without anti-convulsant effects
[2]
  cognitive effects in animal models of cognitive deficit: showed cognitive enhancing effects
[3]
  no observed adverse effect level (NOAEL): 150 mg/kg/day
hERG
  potential to inhibit hERG: low potential to inhibit hERG
[4]; 12 h post-dose at 60 mg
  largest observed mean increase from baseline QTcF: +6.1 ms
[4]; no subject above this value
  single QT-interval value, any subject: ≤ 500 ms
  single corrected QT-interval Fridericia (QTcF) value, any subject: ≤ 450 ms
[4]; single oral doses 0.3-80 mg
  QT-interval prolongation: no QT-interval prolongations were observed
[5]; 0.3 mg single oral dose
  geometric mean AUCinf: 120 ng·h/mL
  geometric mean Cmax: 0.00342 µg/mL
[5]; 80 mg single oral dose
  geometric mean AUCinf: 25,500 ng*h/mL
  geometric mean Cmax: 0.854 µg/mL
[5]; 0.3-80 mg, mixed-effect power model
  deviation from dose proportionality for Cmax: approximately 5%
[5]; entire dose range 0.3-80 mg
  dose proportionality based on AUC0-last and AUCinf: dose-proportional
[5]; oral capsule, fasting condition
  median Tmax: 1.5 h
[6]; fasting state
  median Tmax: 1.5 h
[6]; fed state (standardized high fat meal)
  median Tmax: 4.0 h
[6]; fed vs fasted (n = 8)
  effect of food on extent of exposure (Cmax, AUC0-last, AUCinf): No clinically relevant effect of food
SV2A [7]; 1 mg oral, approximately 24 h after administration
  mean SV2A occupancy: ~0%
SV2A [7]; 1 mg oral, around Tmax (2 h post-dose), 1TC global method
  mean SV2A occupancy: 23%
SV2A [7]; 2 mg oral, approximately 24 h after administration
  mean SV2A occupancy: 20%
SV2A [7]; 2 mg oral, around Tmax, 1TC global method
  mean SV2A occupancy: 41%
SV2A [7]; 10 mg once a day, model prediction
  predicted mean SV2A occupancy at trough level at steady state: 76%
SV2A [7]; 10 mg oral, approximately 24 h after administration
  mean SV2A occupancy: 48%
SV2A [7]; 10 mg oral, around Tmax, 1TC global method
  mean SV2A occupancy: 69% and ~70%
SV2A [7]; 20 mg oral, approximately 24 h after administration
  mean SV2A occupancy: 61%
SV2A [7]; 20 mg oral, around Tmax, 1TC global method (peak occupancy)
  mean SV2A occupancy: 76%
SV2A [7]; 20 mg oral, around Tmax, Part B
  mean plasma concentration: 0.159 ± 0.0205 µg/mL
SV2A [7]; 80 mg dose, predicted
  occupancy as share of predicted maximum: 96%
SV2A [7]; [9]
  EC50 of SV2A occupancy (plasma concentration): 0.0282 mg/L
  Emax of SV2A occupancy: 90.3%
SV2A [7]; Figure 3
  plasma level predicted to render ~90% of maximal occupancy: ~200 ng/mL
SV2A [7]; Tmax and 24 h post-dose, excluding 24 h data of 1 mg
  EC50 of plasma concentration-occupancy relationship (Figure 3): around 25 ng/ml
SV2A [7]; mixed-effect Emax model
  EC90 of SV2A occupancy (concentration where 90% of the maximum effect is reached): 0.245 mg/L
SV2A [7]; mixed-effect Emax model, all data, 95% CI 18.4 to 36.3 ng/ml
  EC50 of SV2A occupancy (plasma concentration): 0.0273 mg/L
SV2A [7]; mixed-effect Emax model, all data, 95% CI 80.1%-98.4%
  Emax of SV2A occupancy: 89.2%
SV2A [7]; possible target related effect
  occupancy levels at which mild and transient side effects were seen in some individuals: > 60%
SV2A [8]
  SV2A occupancy at which MABEL appeared to start: approximately 10%
